Reference: patent publication US20030055046A1, “Novel pyrido cyclohexenyl phenyl carboxamides tocolytic oxytocin receptor antagonists” (Wyeth, priority 2001, published 2003)
Counter-ions that a name gives are not always drawn.

system: not given; test: not given; conditions: not given

melting point	Compound
178 to 179 °C	COc1cc(C2=CCCCC2)c(Cl)cc1C(=O)N1Cc2ccc(C(=O)N(C)Cc3cccnc3)n2Cc2ccccc21 [Example 1, 10-(5-Chloro-4-cyclohex-1-en-1-yl-2-me3thoxybenzoyl)-N-methyl-N-(pyridin-3-ylmethyl)-10,11-dihydro-5H-pyrrolo [2,1-c][1,4]benzodiazepine-3-carboxamide]

molecular target: T1, human vasopressin V1a receptor subtype (Homo sapiens, UniProt P37288); test: Vasopressin binding in CHO cell membranes expressing human vasopressin V1a subtype receptors; conditions: 100 nM, [3H]Manning ligand
T1 construct: host or cells: CHO cells, stably transfected (pZeoSV vector for the Thibonnier cells)
Source text: Vasopressin Binding in Chinese Hamster Ovary Cell Membranes Expressing Human Vasopressin V1a Subtype Receptors
Chinese hamster ovary cells (CHO cells) stably transfected with the human vasopressin V1a subtype receptors were either obtained from Biosignal Inc., 1744 rue Williams, Montreal, Quebec, Canada or obtained from M. Thibonnier, Case Western Reserve University School of Medicine, Cleveland, Ohio.
A. Passaging and Amplification of Cells:
CHO cells transfected with the human vasopressin V1a subtype receptors obtained from M. Thibonnier (pZeoSV vector) are allowed to grow to confluency (approx. >90%) in T-150 flasks under sterile conditions, in a cell culture medium consisting of F-12 Nutrient Mixture (HAM) with L-glutamine (Gibco Cat.# 11765-054) containing 15 mM HEPES (Gibco Cat.# 15630-080), 1% antibiotic/antimycotic (add 5 mL 100×, Gibco Cat.# 15240-062 per 500 mL F-12), 250 μg/mL Zeocin (add 1.25 mL of 100 mg/mL Invitrogen R-250-01 per 500 mL F-12) and 10% Fetal Bovine Serum (Qualified, heat inactivated, Gibco Cat.# 16140-063). The medium is removed by aspiration and the cells are washed with 10 mL of Hank's Balanced Salt solution (Gibco Cat.# 14175-095). The salt solution is removed by aspiration and the cells are trypsinized with 5 mL of trypsin-EDTA (0.05% trypsin, 0.53 mM EDTA-4Na, Gibco Cat.# 25300-070) for 1 min. The trypsin is removed by aspiration and the cells dislodged by tapping. Cell Culture medium (eg, 30 mL for 1:30 split) is immediately added and mixed well to inactivate trypsin. 1 mL of detached cells is added to new culture flasks containing fresh cell culture medium (eg, into 25 mL per T-150 flask), and mixed gently. The cells are incubated at 37° C. in 5% CO2. The medium is changed at 3 to 4 days interval (or as appropriate). The cells grow to confluency (approx. >75%-95%) within 7-8 days. All steps are done under sterile conditions.
The cells are washed twice gently with Hank's Balanced Salt solution (e.g,. use 10 mL per T-150 flask). The excess is removed and the cells are bathed for 15-30 min. in an enzyme-free Cell Dissociation Buffer (e.g. use 8 mL Hank's Based, Gibco Cat.# 13150-016 per T-150 flask) until the cells are loosened. The contents are transferred to centrifuge tubes (50 mL) kept an ice bath. All subsequent steps are done at 4° C. The tubes are centrifuged at 300×g for 15 min (1380 rpm on SORVAL, Model RT6000D, using the rotor for 50 mL tubes). The supernatant is discarded and the cells suspended in homogeneizing buffer (10 mM Tris-HCl containing 0.25 M sucrose and 1 mM EDTA, pH 7.4) ensuring that the volume of the buffer is about ten times the volume of the cell pellet. The cells are pooled into a centrifuge tube (50 mL) and homogenized with Polytron at setting 6 for 10 sec. The homogenate is transferred into a Potter-Elvjehm homogenizer and homogenized with 3 strokes. The homogenate is centrifuged at 1500×g for 10 min at 4° C. (3100 rpm using SORVAL, model RT6000D, using the rotor for 50 mL tubes). The pellet is discarded. The supernatant is centrifuged at 100,000×g for 60 min. at 4° C. (Beckman L8-80M ultracentrifuge; spin at 37,500 rpm with rotor type 70 Ti for 50 mL tubes; 38,000 rpm with type […] for 15 mL tubes; or 35,800 rpm with rotor type 45Ti). The supernatant is discarded and the pellet suspended in 3 to 4 mL of Tris buffer (50 mM TRIS-HCl, pH 7.4). The protein content is estimated by the Bradford or Lowry method. The volume of the membrane suspension is adjusted with the membrane buffer (50 mM Tris-HCl containing 0.1% BSA and 0.1 mM PMSF) to give 3.0 mg/mL (or as appropriate) of protein. The membranes are aliquoted and stored at −70° C.
C. Radioligand Binding Assay: […]

T1 sequence (P37288 whole entry): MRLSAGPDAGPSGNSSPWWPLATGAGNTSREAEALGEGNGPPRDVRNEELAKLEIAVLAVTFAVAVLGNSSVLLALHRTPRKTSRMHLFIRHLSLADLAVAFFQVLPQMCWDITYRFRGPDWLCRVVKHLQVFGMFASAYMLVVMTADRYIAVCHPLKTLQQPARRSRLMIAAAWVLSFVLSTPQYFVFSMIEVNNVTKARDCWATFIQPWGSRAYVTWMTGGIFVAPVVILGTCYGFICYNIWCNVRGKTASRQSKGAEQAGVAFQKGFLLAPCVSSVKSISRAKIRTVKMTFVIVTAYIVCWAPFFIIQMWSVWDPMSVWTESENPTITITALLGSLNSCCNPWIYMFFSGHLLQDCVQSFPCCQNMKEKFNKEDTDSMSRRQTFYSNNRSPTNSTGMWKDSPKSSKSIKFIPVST

Compound	V1a % inhibition @ 100 nM
CC1=C(c2ccc(C(=O)N3Cc4ccc(C(=O)N(C)Cc5cccnc5)n4Cc4ccccc43)cc2C)CCC[C@H]1O.O=C(O)C(O)C(O)C(=O)O [Example 4, 10-[4-((3R)-3-Hydroxy-2-methyl-cyclohex-1-en-1-yl)-3-methyl-benzoyl]-10,11-dihydro-5H-pyrrolo[2,1-c][1,4]benzodiazepine-3-carboxylic acid methyl-pyridin-3-yl methyl-amide L-(+)-tartaric acid salt]	61%
Cc1cc(C(=O)N2Cc3ccc(C(=O)NCc4ccncc4)n3Cc3ccccc32)ccc1C1=CCCCC1 [Example 10, 10-[4-(1-Cyclohex-1-en-1-yl)-3-methylbenzoyl]-N-(4-pyridinylmethyl)-10,11-dihydro-5H-pyrrolo[2,1-c][1,4]benzodiazepine-3-carboxamide]	13%
Cc1cc(C(=O)N2Cc3ccc(C(=O)NCc4cccnc4)n3Cc3ccccc32)ccc1C1=CCCCC1 [Example 6, 10-[4-(1-Cyclohex-1-en-1-yl)-3-methylbenzoyl]-N-(3-pyridinylmethyl)-10,11-dihydro-5H-pyrrolo[2,1-c][1 ,4]benzodiazepine-3-carboxamide]	6%
CC1=C(c2ccc(C(=O)N3Cc4ccc(C(=O)N(C)Cc5cccnc5)n4Cc4ccccc43)cc2C)CCC[C@H]1O [Example 3, 10-[4-((3R)-3-Hydroxy-2-methyl-cyclohex-1-en-1-yl)-3-methyl-benzoyl]-10,11-dihydro-5H-pyrrolo[2,1-c][1,4]benzodiazepine-3-carboxylic acid methyl-pyridin-3-yl methyl-amide]	41%
Cc1cc(C(=O)N2Cc3ccc(C(=O)N4CCN(c5ccncc5)CC4)n3Cc3ccccc32)ccc1C1=CCCCC1 [Example 12, {10-[4-(1-Cyclohex-1-en-1-yl)-3-methylbenzoyl]-10,11-dihydro-5H-pyrrolo[2,1--c][1,4]benzodiazepin-3-yl}[4-(4-pyridinyl)-1-piperazinyl]methanone]	73%

Results, then the compound that gave them:

V1a % inhibition @ 100 nM	Compound
51%	Cc1cc(C(=O)N2Cc3ccc(C(=O)N(C)CCc4ccncc4)n3Cc3ccccc32)ccc1C1=CCCCC1 [Example 13, 10-[4-(1-Cyclohex-1-en-1-yl)-3-methylbenzoyl]-N-methyl-N-[2-(4-pyridinyl)ethyl]-10,11-dihydro-5H-pyrrolo[2,1-c][1,4]benzodiazepine-3-carboxamide]
13%	Cc1cc(C(=O)N2Cc3ccc(C(=O)NCCc4ccccn4)n3Cc3ccccc32)ccc1C1=CCCCC1 [Example 7, 10-[4-(1-Cyclohex-1-en-1-yl)-3-methylbenzoyl]-N-[2-(2-pyridinyl)ethyl]-10,11-pyrrolo[2,1-c][1,4]benzodiazepine-3-carboxamide]
5%	Cc1cc(C(=O)N2Cc3ccc(C(=O)N4CCN(c5ccccn5)CC4)n3Cc3ccccc32)ccc1C1=CCCCC1 [Example 9, {10-[4-(1-Cyclohex-1-en-1-yl)-3-methylbenzoyl]-10,11-dihydro-5H-pyrrolo[2,1-c][1,4]benzodiazepin-3-yl}[4-(2-pyridinyl)-1-piperazinyl]methanone]
18%	Cc1cc(C(=O)N2Cc3ccc(C(=O)NCc4ccccn4)n3Cc3ccccc32)ccc1C1=CCCCC1 [Example 5, 10-[4-(1-Cyclohex-1-en-1-yl)-3-methylbenzoyl]-N-(2-pyridinylmethyl)-10,11-dihydro-5H-pyrrolo[2,1-c][1,4]benzodiazepine-3-carboxamide]
43%	Cc1cc(C(=O)N2Cc3ccc(C(=O)N(C)CCc4ccccn4)n3Cc3ccccc32)ccc1C1=CCCCC1 [Example 8, 10-[4-(1-Cyclohex-1-en-1-yl)-3-methylbenzoyl]-N-methyl-N-[2-(2-pyridinyl)ethyl]-10,11-dihydro-5H-pyrrolo[2,1-c][1 ,4]benzodiazepine-3-carboxamide]
54%	Cc1cc(C(=O)N2Cc3ccc(C(=O)N(C)Cc4cccnc4)n3Cc3ccccc32)ccc1C1=CCCCC1 [Example 11, 10-[4-(1-Cyclohex-1-en-1-yl)-3-methylbenzoyl]-N-methyl-N-(3-pyridinylmethyl)-10,11-dihydro-5H-pyrrolo[2,1-c][1,4]benzodiazepine-3-carboxamide]

same assay, conditions: [3H]Manning ligand, value in parentheses

IC50	Compound
1320 nM	COc1cc(C2=CCCCC2)c(Cl)cc1C(=O)N1Cc2ccc(C(=O)N(C)Cc3cccnc3)n2Cc2ccccc21 [Example 2, 10-(5-Chloro-4-cyclohex-1-en-1-yl-2-methoxybenzoyl)-N-methyl-N-(pyridin-3-ylmethyl)-10,11-dihydro-5H-pyrrolo[2,1-c][1,4]benzodiazepine-3-carboxamide L-(+)-tartaric acid salt hemihydrate]
1090 nM	COc1cc(C2=CCCCC2)c(Cl)cc1C(=O)N1Cc2ccc(C(=O)N(C)Cc3cccnc3)n2Cc2ccccc21 [Example 1, 10-(5-Chloro-4-cyclohex-1-en-1-yl-2-me3thoxybenzoyl)-N-methyl-N-(pyridin-3-ylmethyl)-10,11-dihydro-5H-pyrrolo [2,1-c][1,4]benzodiazepine-3-carboxamide]
